# Measurements published in US10195178B2, “GPR40 agonists in anti-diabetic drug combinations” (Janssen Pharmaceutica NV, priority 2016, dated 2019).
# “And” between values parts separate entries of the source, which are not always exact repeats. Equal values may be shown once.
# Assays:
# [1] = test system: SD rats; assay: Oral Glucose Tolerance Test: Canagliflozin Combination with GPR40 Agonist; type: in vivo; details: SD rat OGTT; for Blood glucose 0 min / Blood glucose 30 min / Blood glucose 60 min / Blood glucose 120 min / Blood glucose AUC / Blood glucose AUC % of Vehicle: single oral dose 60 min before glucose 2 g/kg; for Blood glucose AUC / Blood glucose AUC % of Vehicle: AUC 0-120 min
# Method: We have evaluated the blood glucose (BG) lowering effect of canagliflozin (Cana) combined with a GPR40 agonist Cpd 2 in SD rat studies. Overnight fasted SD rats received either a single treatment of Cana or Cpd 2 or a combination of both. An oral glucose tolerance test (OGTT) was followed at 60 min post compound administration. […] The two-sided Z Test and Delta method were applied to statistically determine the treatment additivity of combinations using blood glucose AUC values. Results indicated the treatments were additive in the combinations of Canagliflozin at 1 or 3 mg/kg and Cpd 2 at 0.3 or 1 mg/kg.
# • A. The formulation of Canagliflozin was prepared by directly adding the required amount of 0.5% HPMC to the compound and stirring overnight. • B. The formulation of Cpd 2 was prepared following steps listed below: • a. One equivalent (amount of compound/compound MW) of 1N NaOH was added to dry compound to enhance water solubility (due to compound itself is a carboxylic acid). • b. The required volume of 0.5% HPMC was then added; • c. The compound was vortexed and sonicated (without heat) for a minimum of 10 minutes. • d. The compound was then allowed to stir overnight. • C. For the formulation of combination of Canagliflozin (Cana) and Cpd 2: • a. First, a formulation of double concentrations of each compound was prepared.
# • b. Right before dosing, the double-concentrated formulation of Cpd 2 was mixed with an equal volume of the double-concentrated formulation of Canagliflozin, such that each compound was as 1× concentration. • D. The dosing volume for all the experiments was 10 mL/kg Experimental Design
# Male SD rats (225-245 g of body weight, purchased from Charles River) were used in this study. SD rats were housed 2 per cage in a temperature-controlled room with 12-hour light/dark cycle (6 am-6 pm lights on). They are allowed ad libitum access to water and fed with Purina 5K75 (LabDiet, St. Louis, Mo.).
# SD rats were fasted overnight. In the morning of the next day, these rats were grouped into the following 12 groups based on their fasted blood glucose levels determined by a glucometer (LifeScan, New Brunswick, N.J.) and body weight.
# At −60 minutes BG values were collected via tail bleeding. Next, rats were dosed orally with vehicle or compounds in vehicle. Then, at 0 minutes, rats were bled via tail vein to determine BG levels and dosed orally with glucose (2 g/kg; 50% glucose, 4 mL/kg). Blood samples were collected at 30, 60, and 120 minutes after oral glucose administration for BG determination.
# Statistical analysis were performed using the program Prism (Graphpad, Monrovia, Calif.) with either a repeated measures 1-way ANOVA (glucose and insulin curves with Tukey's post-test) or a one-way ANOVA and Tukey's multiple comparison test (AUC, delta AUC and percent vehicle). All data are presented as the mean±standard error of the mean (SEM).
# The two-sided Z Test and Delta method was applied to statistically determine the treatment additivity of combinations.
# [2] = target: human GPR40 (Homo sapiens (Human), UniProt O14842); assay: GPR40 Calcium Flux Assay; type: cell-based; details: transfected HEK293 cells stably expressing human GPR40; mean data; read-out: hGPR40 Ca2+ Assay EC50
# Chain of human GPR40 (O14842 whole entry): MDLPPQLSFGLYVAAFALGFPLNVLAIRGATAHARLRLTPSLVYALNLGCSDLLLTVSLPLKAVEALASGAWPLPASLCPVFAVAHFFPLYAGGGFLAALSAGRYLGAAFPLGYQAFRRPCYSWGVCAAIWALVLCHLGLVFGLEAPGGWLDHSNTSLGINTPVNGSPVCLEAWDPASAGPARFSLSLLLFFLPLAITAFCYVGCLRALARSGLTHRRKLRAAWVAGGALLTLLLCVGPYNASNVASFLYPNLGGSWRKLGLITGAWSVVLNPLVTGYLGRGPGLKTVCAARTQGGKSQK
# Method: Compounds were tested in a calcium flux assay using transfected HEK293 cells stably expressing either human GPR40 or rat GPR40. Human GPR40 expressing cells were cultured in DMEM-High Glucose media supplemented with 10% fetal bovine serum, 1×L-Glutamine, 1×Penicillin/Streptomycin and 500 μg/mL G418. Rat GPR40 expressing cells were cultured in DMEM-High Glucose media supplemented with 10% fetal bovine serum and 1 μg/mL puromycin. Cells were plated into poly-D-lysine coated 384-well plates and cultured overnight in a 37° C. humidified tissue culture incubator under 5% CO2/[…] atmosphere. On the day of the experiment, the culture media was replaced with assay buffer (HBSS, 20 mM HEPES, 0.1% BSA) and the cells incubated at 37° C. for 1 h. Calcium-sensitive fluorescent dye (Fluo 8 No-Wash Calcium Dye, ABD Bioquest) was then added and the cells incubated for another 30 min at 37° C. followed by 15 min at room temperature while protected from the light. The cell plate and a plate of diluted compounds of Formula (I) were loaded into a fluorescent plate reader that added compounds onto the cells while measuring the fluorescence intensity of each well. The plate reader recorded fluorescence intensity at 1 second intervals for 8 min and provided the data for analysis in an Excel format. EC50 values were calculated using Prism (GraphPad) software.
compound,measurement,setting,value
"Cc1ccc([C@@H]2O[C@H](CO)[C@@H](O)[C@H](O)[C@H]2O)cc1Cc1ccc(-c2ccc(F)cc2)s1 [Cana, canagliflozin]",Blood glucose lowering during OGTT (in words),[1]; 10 mg/kg,markedly lowering blood glucose
same,Blood glucose 0 min,[1]; 1 mpk,76.9 ± 2.3 mg/dL
same,Blood glucose 30 min,[1]; 1 mpk,162.8 ± 6.5 mg/dL
same,Blood glucose 60 min,[1]; 1 mpk,177.8 ± 4.0 mg/dL
same,Blood glucose 120 min,[1]; 1 mpk,135.5 ± 8.2 mg/dL
same,Blood glucose AUC,[1]; 1 mpk,"18,099 ± 551 mg/dL/120 min"
same,Blood glucose AUC % of Vehicle,[1]; 1 mpk,95.4 ± 2.9%
same,Blood glucose 0 min,[1]; 3 mpk,85.1 ± 3.0 mg/dL
same,Blood glucose 30 min,[1]; 3 mpk,140.5 ± 5.1 mg/dL
same,Blood glucose 60 min,[1]; 3 mpk,156.4 ± 4.0 mg/dL
same,Blood glucose 120 min,[1]; 3 mpk,125.1 ± 9.7 mg/dL
same,Blood glucose AUC,[1]; 3 mpk,"16,204 ± 412 mg/dL/120 min"
same,Blood glucose AUC % of Vehicle,[1]; 3 mpk,85.4 ± 2.2%
same,Blood glucose 0 min,[1]; 10 mpk,73.6 ± 4.4 mg/dL
same,Blood glucose 30 min,[1]; 10 mpk,91.9 ± 6.4 mg/dL
same,Blood glucose 60 min,[1]; 10 mpk,103.5 ± 5.4 mg/dL
same,Blood glucose 120 min,[1]; 10 mpk,95.1 ± 3.7 mg/dL
same,Blood glucose AUC,[1]; 10 mpk,"11,400 ± 459 mg/dL/120 min"
same,Blood glucose AUC % of Vehicle,[1]; 10 mpk,60.1 ± 2.4%
"CC#C[C@@H](CC(=O)O)c1ccc(OCc2ccc3scc(-c4ccccc4C)c3c2)cc1 [Cpd 2, (3S)-3-[4-[[3-(2-Methylphenyl)benzo[b]thiophen-5-yl]methoxy]phenyl]hex-4-ynoic acid]",Blood glucose 0 min,[1]; 0.3 mpk,86.1 ± 4.2 mg/dL
same,Blood glucose 30 min,[1]; 0.3 mpk,149.0 ± 4.3 mg/dL
same,Blood glucose 60 min,[1]; 0.3 mpk,153.1 ± 4.2 mg/dL
same,Blood glucose 120 min,[1]; 0.3 mpk,103.3 ± 4.0 mg/dL
same,Blood glucose AUC,[1]; 0.3 mpk,"15,750 ± 244 mg/dL/120 min"
same,Blood glucose AUC % of Vehicle,[1]; 0.3 mpk,83.0 ± 1.3%
same,Blood glucose 0 min,[1]; 1 mpk,76.1 ± 5.0 mg/dL
same,Blood glucose 30 min,[1]; 1 mpk,132.3 ± 6.4 mg/dL
same,Blood glucose 60 min,[1]; 1 mpk,139.6 ± 7.3 mg/dL
same,Blood glucose 120 min,[1]; 1 mpk,102.4 ± 4.8 mg/dL
same,Blood glucose AUC,[1]; 1 mpk,"14,464 ± 554 mg/dL/120 min"
same,Blood glucose AUC % of Vehicle,[1]; 1 mpk,76.2 ± 2.9%
"Cc1ccccc1-c1csc2ccc(COc3ccc([C@]4(CC(=O)O)C[C@@H](O)C4)cc3)cc12 [Cpd 31, 2-((1r,3r)-3-Hydroxy-1-(4-((3-(2-methylphenyl)benzo[b]thiophen-5-yl)methoxy)phenyl)cyclobutyl)acetic acid]",EC50,[2],48 nM
"CC#C[C@@H](CC(=O)O)c1ccc(OCc2ccc3scc(-c4ccc(OCCOC)cc4C)c3c2)nc1 [Cpd 77, (3R)-3-(6-((3-(4-(2-Methoxyethoxy)-2-methylphenyl)benzo[b]thiophen-5-yl)methoxy)pyridin-3-yl)hex-4-ynoic acid]",EC50,[2],16 nM and 6 nM and 5 nM
"CC#CC(CC(=O)O)c1ccc(OCc2ccc3scc(-c4ccccc4C)c3c2)cc1 (stereo not shown) [Cpd 97, 3-(4-((3-(2-Methylphenyl)benzo[b]thiophen-5-yl)methoxy)phenyl)hex-4-ynoic acid]",EC50,[2],4 nM
